# Activity calls are given as the source filed them. No cut-off for these calls is given here.
# Legend:
# [1] = system: MDA-MB-231; assay: Induction of apoptosis in human MDA-MB-231 cells assessed as increase in Annexin V-positive cells at 1 to 4 uM incubated for 24 hrs by Annexin V-633/PI staining based flow cytometry; type: functional, cell-based; conditions: dose 1-4 µM
# [2] = system: 4T1; assay: Antitumor immunity against mouse 4T1 cells implanted in BALB/c mouse assessed as increase in proportion of CD8+ T cells in tumor at 10 mg/kg,ip every other day for 14 days by immunohistochemistry staining based analysis; type: functional, organism-based; conditions: time 14.0 day
# [3] = system: MDA-MB-231; assay: Inhibition of colony formation in human MDA-MB-231 cells at 0.25 uM incubated for 8 days by crystal violet staining based analysis; type: functional, cell-based; conditions: time 8.0 day
# [4] = Toxicity in BALB/c mouse implanted with mouse 4T1 cells assessed as histopathological change in lung at 10 mg/kg,ip every other day for 14 days by hematoxylin and eosin staining analysis; type: organism-based; conditions: in vivo, 336 h, time 14 day
# [5] = target: DNA; assay: Binding affinity to DNA (unknown origin) assessed as dissociation constant by Benesi-Hildebrand equation based analysis; type: nucleic-acid assay
# [6] = system: MDA-MB-231; assay: Induction of DNA damage in human MDA-MB-231 cells assessed as upregulation of CHK2 phosphorylation incubated for 24 hrs by Western blot analysis; type: functional, cell-based
# [7] = system: Quadruplex DNA; assay: Binding affinity to KRAS G-quadruplex telomeric DNA (unknown origin) assessed as […] by measuring melting temperature by FRET assay; type: nucleic-acid assay
# [8] = system: Quadruplex DNA; assay: Stabilization of G-quadruplex telomeric24 DNA (unknown origin) at 10 uM incubated for 40 mins by replication based ethidium bromide staining based gel electrophoresis; type: nucleic-acid assay
# [9] = system: MDA-MB-231; assay: Induction of DNA damage in human MDA-MB-231 cells assessed as increase in micronuclei frequency in aberrant cell at 4 uM incubated for 24 hrs by DAPI staining based microscopic analysis; type: functional
# [10] = system: MDA-MB-231; assay: Induction of DNA damage in human MDA-MB-231 cells assessed as increase in colocalization of TRF2 and gamma-H2AX formation foci in nucleus at 3 uM incubated for 24 hrs by DAPI staining based immunofluorescence analysis; type: functional, cell-based
# [11] = system: 4T1; assay: Antitumor activity against mouse 4T1 cells implanted in BALB/c mouse assessed as increase in survival time at 10 mg/kg,ip every other day for 14 days; type: functional, organism-based; conditions: time 14.0 day
# [12] = system: MDA-MB-231; assay: Induction of apoptosis in human MDA-MB-231 cells assessed as upregulation of cleaved caspase-3 expression at 1 to 4 uM incubated for 24 hrs by Western blot analysis; type: functional, cell-based; conditions: dose 1-4 µM
# [13] = system: MDA-MB-231; assay: Induction of cell cycle arrest in human MDA-MB-231 cells assessed as accumulation of cells at G0/G1 phase at 4 uM incubated for 24 hrs by RNase/PI staining based flow cytometry (reference value: 82.3 %); type: functional
# [14] = system: Quadruplex DNA; assay: Stabilization of G-quadruplex 5-FAM-telomeric24 DNA-TAMRA-3 (unknown origin) assessed as change in melting temperature incubated for 2 hrs by FRET assay; type: nucleic-acid assay
# [15] = Drug uptake in human MDA-MB-231 cells assessed as increase in fluorescence intensity in tumor spheroid incubated for 24 hrs; type: ADME, cell-based; conditions: mda-mb-231, 24 h
# [16] = system: MDA-MB-231; assay: Antiproliferative activity against human MDA-MB-231 cells assessed as reduction in tumor spheroid volume at 10 uM incubated for 7 days by propidium iodide staining based fluorescence analysis; type: functional, cell-based; conditions: time 7.0 day
# [17] = Toxicity in BALB/c mouse implanted with mouse 4T1 cells assessed as histopathological change in liver at 10 mg/kg,ip every other day for 14 days by hematoxylin and eosin staining analysis; type: organism-based; conditions: in vivo, 336 h, time 14 day
# [18] = system: 4T1; assay: Cytotoxicity against mouse 4T1 cells incubated for 24 hrs by CCK-8 reagent based spectrophotometric analysis; type: functional, cell-based; conditions: 4T1, 24 h
# [19] = system: BMDC; assay: Induction of immunogenic cell death in BALB/c mouse BMDC cells co-cultured with mouse 4T1 cells assessed as increase in CD11c+ CD80+ CD86 cells maturation at 5 uM incubated for 24 hrs by flow cytometry (reference value: 69.4 %); type: functional
# [20] = system: MDA-MB-231; assay: Induction of DNA damage in human MDA-MB-231 cells assessed as increase in tail moment at 4 uM incubated for 24 hrs by electrophoresis assay; type: functional, cell-based
# [21] = system: MCF7; assay: Cytotoxicity against human MCF7 cells incubated for 24 hrs by CCK-8 reagent based spectrophotometric analysis; type: functional, cell-based; conditions: MCF7, 24 h
# [22] = system: MDA-MB-231; assay: Induction of apoptosis in human MDA-MB-231 cells assessed as upregulation of cleaved PARP expression at 1 to 4 uM incubated for 24 hrs by Western blot analysis; type: functional, cell-based; conditions: dose 1-4 µM
# [23] = system: MDA-MB-231; assay: Induction of cell cycle arrest in human MDA-MB-231 cells assessed as accumulation of cells at S phase at 2 uM incubated for 24 hrs by RNase/PI staining based flow cytometry (reference value: 6.3 %); type: functional
# [24] = Toxicity in BALB/c mouse implanted with mouse 4T1 cells assessed as histopathological change in heart at 10 mg/kg,ip every other day for 14 days by hematoxylin and eosin staining analysis; type: organism-based; conditions: in vivo, 336 h, time 14 day
# [25] = system: 4T1; assay: Antitumor immunity against mouse 4T1 cells implanted in BALB/c mouse assessed as increase in proportion of CD8+ T cells in tumor at 10 mg/kg,ip every other day for 14 days by flow cytometry; type: functional, organism-based; conditions: time 14.0 day
# [26] = system: 4T1; assay: Antitumor immunity against mouse 4T1 cells implanted in BALB/c mouse assessed as increase in proportion of CD8+ T cells in spleen at 10 mg/kg,ip every other day for 14 days by flow cytometry; type: functional, organism-based; conditions: time 14.0 day
# [27] = system: MDA-MB-231; assay: Antiproliferative activity against human MDA-MB-231 cells assessed as reduction in tumor spheroid volume at 20 to 40 uM incubated for 7 days by propidium iodide staining based fluorescence analysis; type: functional, cell-based; conditions: dose 20-40 µM, time 7.0 day
# [28] = system: 4T1; assay: Antitumor activity against mouse 4T1 cells implanted in BALB/c mouse assessed as reduction in tumor weight at 10 mg/kg,ip every other day for 14 days; type: functional, organism-based; conditions: time 14.0 day
# [29] = Toxicity in BALB/c mouse implanted with mouse 4T1 cells assessed as histopathological change in kidney at 10 mg/kg,ip every other day for 14 days by hematoxylin and eosin staining analysis; type: organism-based; conditions: in vivo, 336 h, time 14 day
# [30] = system: DNA; assay: Binding affinity to Mitochondrial DNA (unknown origin) assessed as increase in melting temperature by CD spectrophotometric analysis; type: nucleic-acid assay
# [31] = system: MDA-MB-231; assay: Induction of DNA damage in human MDA-MB-231 cells assessed as upregulation of CHK2 phosphorylation at 4 uM by Western blot analysis; type: functional, cell-based; conditions: TDE = time-dependent effect
# [32] = system: Quadruplex DNA; assay: Stabilization of G-quadruplex telomeric DNA in human MDA-MB-231 cells assessed as increase in colocalization of TRF2 and S9.6 formation foci at 3 uM incubated for 24 hrs by DAPI staining based immunofluorescence microscopic analysis; type: cell-based
# [33] = system: Quadruplex DNA; assay: Binding affinity to G-quadruplex telomeric DNA (unknown origin) assessed as melting temperature by CD spectrophotometric analysis; type: nucleic-acid assay
# [34] = system: MDA-MB-231; assay: Induction of DNA damage in human MDA-MB-231 cells assessed as increase in multi-nuclei frequency in aberrant cell at 4 uM incubated for 24 hrs by DAPI staining based microscopic analysis; type: functional
# [35] = system: MDA-MB-231; assay: Induction of cell cycle arrest in human MDA-MB-231 cells assessed as accumulation of cells at G2/M phase at 4 uM incubated for 24 hrs by RNase/PI staining based flow cytometry (reference value: 11.3 %); type: functional
smiles,measurement,setting,value
CN(C)CCN(C)c1ccc(-c2nc3ccc(C(F)(F)F)cc3nc2-c2ccc(N(C)CCN(C)C)cc2)cc1,Activity,[1],Active
same,Activity,[2],Active
same,inhibition,[3],Active
same,Activity,[4],Non-Toxic
same,Kd,[5],1.4 µM
same,Activity,[6],Dose-Dependent Effect
same,Activity,[7],Active
same,Activity,[8],Active
same,Activity,[9],Active
same,Activity,[10],Active
same,Activity,[11],Active
same,Activity,[12],Active
same,Activity,[13],70.3%
same,ΔTm,[14],6.1 °C
same,Drug uptake,[15],Active
same,Activity,[16],inactive
same,Activity,[17],Non-Toxic
same,IC50,[18],4.6 µM
same,Activity,[19],77.9%
same,Activity,[20],Active
same,IC50,[21],3.6 µM
same,Activity,[22],Active
same,Activity,[23],6.9%
same,Activity,[24],Non-Toxic
same,Activity,[25],Active
same,Activity,[26],Active
same,Activity,[27],Active
same,Activity,[28],Active
same,Activity,[29],Non-Toxic
same,Activity,[30],Active
same,Activity,[31],Tde
same,Activity,[32],Active
same,Tm,[33],66 °C
same,Activity,[34],Active
same,Activity,[35],20.9%

# Reference: ChEMBL document CHEMBL5550165, “Novel quinoxaline analogs as telomeric G-quadruplex ligands exert antitumor effects related to enhanced immunomodulation” (Eur J Med Chem, 2024)
